This note sets out measurements from patent publication US20260284005A1, “INHIBITING MITOGEN-ACTIVATED PROTEIN (MAP)/ERK KINASE (MEK)1 AND MEK2 AND RELATED METHODS OF TREATMENT” (priority 2023, published 2026).

The structures appear in SMILES notation.

The subject of data set [1] is NCI-H2087 cells. Briefly: 3D-TGA. It is filed as cell-based. The settings on record: Homo sapiens, NCI-H2087, read-out: 3D-TGA response. The gist of the method: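 Read-out: percentage of EdU-positive cells, quantified by high-content imaging and image segmentation. Cultures were 3D in BME mixed 1:1 with custom medium, 3000 cells/well, kept at 37° C under 5% CO2 and 5% O2.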

Data set [2] has as its system pERK in multiple tumor cells. The data set is described as follows: IC50 for pERK in 2D grown cell lines (panel). The settings on record: range over cell lines, in vitro 2D assays; read-out: IC50 pERK (activated ERK) across multiple tumor cells. It is filed as cell-based.
Data set [3] relates to KRAS-, NRAS- and BRAF-mutated solid tumor rodent models. The data set is described as follows: Human and murine solid tumor models (summary). From the text:
CRC=colorectal cancer, NSCLC=non-small cell lung cancer; MEL—melanoma; PANC=pancreatic cancer. Tumor Growth Inhibition; TGI %=[1−(Ti−T0)/(Ci−C0)]×100; T=treatment groups; C=control groups.

The subject of data set [4] is RAS mutant solid tumors. Briefly: Phase 1/2a clinical trial, anti-tumor activity (RECIST). It is filed as in vivo, human. To be noted: 320 mg, 2 L. How it is done:
This study begins with Phase 1 Dose Exploration (including monotherapy dose escalation and dose expansion stages).
Overall, a tight relationship was observed between the plasma concentrations and p-ERK to total ERK ratios, as well as a low variance in PD (p-ERK) profiles at the 320 mg compared to the 240 mg PO QD dose levels.
(Note: 2 patients at 320 mg with −35.7% as best individual lesion regression, both in 2 L).

Data set [5] concerns NCI-N87 (gastric). Briefly: 3D-TGA. It is filed as cell-based, human.
Data set [6] has as its system NCI-H1581 (lung). The data set is described as follows: 3D-TGA. The class given is cell-based, human.
Data set [7] deals with MIA PaCa-2 (KRAS G12C) pancreatic xenograft. Briefly: MIA PaCa-2 pancreatic xenograft tumor model. It is filed as in vivo, athymic nude mice. From the text: Gemcitabine (antimetabolite), nab-paclitaxel (taxane) and fluorouracil (5-FU; antimetabolite) were commercially purchased. All studies started with 12 animals, per group. Mice within specific groups randomized for cross-over of treatments (≥day 42). […] Additive models: MIA PaCa-2, PA-TU-8988S, CFPAC-1, HPAF-II, Panc 03.27, PSN-1, Panc 10.05, Capan-1, HPAC, PANC-1.

Data set [8] concerns HEP G2 (liver). Briefly: 3D-TGA. It is filed as cell-based. The settings on record: Homo sapiens, HepG2, read-out: 3D-TGA response.
The test system of data set [9] is Capan-2 (KRAS G12V) pancreatic xenograft. The settings on record: 21 days.
In data set [10] the test system is A375 (BRAF V600E) melanoma xenograft. Briefly: A375 melanoma xenograft tumor model. The class given is in vivo, athymic nude mice. The text has this:
A375 (BRAFV600E) Melanoma Xenograft Tumor Model in Athymic Nude Mice. Binimetinib and encorafenib were commercially purchased.

The test system of data set [11] is KP-2 (pancreatic). Briefly: 3D-TGA. It is filed as cell-based. To be noted: Homo sapiens; pancreatic KP-2; read-out: 3D-TGA response.
Data set [12] concerns HT-29 BRAF^V600E colorectal cancer xenograft. Briefly: HT-29 colorectal xenograft tumor model. It is filed as in vivo, athymic nude mice. The settings on record: HT-29 BRAFV600E xenograft. The text has this: An integrated translational platform with integrated bioinformatics utilized patient-aligned model systems was used to identify key factors that help predict response to Compound A and its unique DCI profile.

The subject of data set [13] is SK-MEL-30 (melanoma). Briefly: 3D-TGA. It is filed as cell-based. The settings on record: Homo sapiens; melanoma SK-MEL-30; read-out: 3D-TGA response.
Data set [14] concerns pERK. The data set is described as follows: ERK activation after 100 nM drug for 2 hours. The class given is cell-based, human. The settings on record: A549 KRAS mutant NSCLC tumor cells. How it is done:
The tumor cells with 100 nM of each drug were exposed for 2 hours and MEK and ERK activation levels were evaluated.

Data set [15] has as its system SK-MEL-2 (NRAS Q61R) melanoma xenograft. Briefly: SK-MEL-2 melanoma xenograft tumor model. The class given is in vivo, mice.
The subject of data set [16] is ERK-induced transcription in Colon-26 tumors. The data set is described as follows: Colon-26 tumor RNA sequencing, ERK transcriptome. It is filed as in vivo, BALB/c mice. To be noted: 100 mg/kg BID PO.
Setting [17] is: MIA PaCa-2 KRAS G12C xenograft, 21 days.

Consider `CNS(=O)(=O)Nc1cccc(Cc2c(CN(C)C)c3ccc(OC(=O)N(C)C)cc3oc2=O)c1F` [Compound A, 4-((dimethylamino)methyl)-3-(2-fluoro-3-((N-methylsulfamoyl)amino)benzyl)-2-oxo-2H-chromen-7-yl dimethylcarbamate], for which the IC50 was more than 1 µM in [1]; 0.0242 to 0.0832 µM in data set [2]; more than 1 µM in data set [8]; less than 1 µM in [11]; more than 1 µM in [13]. The “tumor response in head-to-head studies” value in [3] (KRAS-, NRAS-, BRAF-mutated rodent models, while maintaining body weight) is on record as “tumor stasis or regression”. Besides, in data set [3] (all doses, all models (MIA PaCa-2, Capan-2, SK-MEL-2, A549, Colon-26)), the tumor reduction entry was “Significant tumor reduction”. Further, in [3] (top doses, xenograft tumor models), the “median body weight loss” value is recorded as 3-6 % of baseline. The “Best individual lesion regressions” value in data set [4] is −35.7%. In addition, the 3D-TGA response result in data set [5] and in [6] was “resistant” in each case. In addition, the “TGI vs single or combination chemotherapy” value in [7] (MIA PaCa-2, Compound A alone) is “greater tumor growth inhibition (TGI)”. Also, the BWL result in data set [7] (setting [17]) and in [9] (Capan-2 (KRAS G12V) xenograft) was “insignificant BWL” in each case. Also, in [7] (setting [17]), the “median BWL” value is given as ≤ 3 % of baseline. For the same compound, the tumor response result in [7] (setting [17]) is recorded as “tumor regression”; in data set [9] (Capan-2 (KRAS G12V), vs sotorasib or adagrasib) it was “tumor regression”. In data set [9] (KRAS-G12V Capan-2 PDAC tumors, 150 mg/kg BID po), the TGI entry is reported as “up to 84%”. For the same compound, the “tumor growth inhibition vs binimetinib monotherapy” value in data set [10] is given as “greater tumor growth inhibition”. In data set [12], the “tumor growth inhibition, monotherapy” value is recorded as “superior tumor growth inhibition to binimetinib”. Also, the “pERK (ERK activation)” value in data set [14] was “inhibited both pERK and pMEK”. Moreover, in data set [15], the tumor regressions entry is “Midcycle tumor regressions”. Moreover, the “downregulation of Egr1 and Spry4” value in data set [16] (day 18, 2 hours after first dose, vs vehicle) is “over 16 fold”. Also, the “ERK transcriptome, 2 h vs 12 h post-dose” value in data set [16] (day 18, Colon-26) was “deep, cyclic inhibition”.
